Source: PubChem BioAssay (NCI)
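Values below derive from 48-hour exposures of cells grown in 96-well plates, with endpoints linearly interpolated between the two concentrations bracketing the appropriate inhibition level. Definition used: TGI = concentration required for complete inhibition of growth.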

Assays:
Experiment in all cases: NCI tumour cell line growth inhibition, 48 h
[1] = system: M19-MEL melanoma
[2] = system: HOP-18 NSCLC
[3] = system: DMS 273 small cell lung
[4] = system: XF 498 CNS
[5] = system: SNB-78 CNS
[6] = system: DMS 114 small cell lung
[7] = system: KM20L2 colon
[8] = system: DLD-1 colon

| Compound | TGI [1] [µM] | TGI [2] [µM] | TGI [3] [µM] | TGI [4] [µM] | TGI [5] [µM] | TGI [6] [µM] | TGI [7] [µM] | TGI [8] [µM] |
| --- | --- | --- | --- | --- | --- | --- | --- | --- |
| COC(=O)C1CCc2c1c(=O)n1c([nH]c3ccccc31)c2C#N (configuration not stated) | > 100 | > 100 | > 100 | > 100 | > 100 | > 100 | > 100 | > 100 |
| CC(C)OP(=O)(OC(C)C)/C(Cl)=N/Nc1ccc([N+](=O)[O-])cc1 | > 100 | – | > 100 | > 100 | > 100 | > 100 | > 100 | > 100 |
| COc1ccc(C2=C(Cl)c3cc(OC)c(OC)cc3C2OC)cc1OC (configuration not stated) | > 100 | > 100 | > 100 | > 100 | > 100 | > 100 | > 100 | 41.8 |
| O=C(c1ccccc1)c1c(CC(O)c2ccccn2)n(C(=O)c2ccccc2)c2ccccc12 (configuration not stated) | 40.1 | – | 58.3 | 46 | – | 71.9 | 33.5 | > 100 |
| Nc1nc2c3nc(Nc4ccccc4)sc3nc(=S)n2c2sc(Nc3ccccc3)nc12 | > 100 | > 100 | > 100 | 4.25 | > 100 | > 100 | > 100 | > 100 |
| COP(=O)(OC)C(=O)N1N(c2ccc([N+](=O)[O-])cc2)C(=O)C(C)NC1(NNc1ccc([N+](=O)[O-])cc1)P(=O)(OC)OC (configuration not stated) | > 100 | – | > 100 | > 100 | – | > 100 | > 100 | > 100 |
| CCN(CC)c1cccc2c1/C(=N/O)CCCC2 | > 100 | > 100 | > 100 | > 100 | > 100 | > 100 | > 100 | – |
| CCN(CC)C(=O)Cc1c(C(=O)N(CC)CC)c(=O)nc2sccn12 | > 100 | > 100 | > 100 | > 100 | – | > 100 | > 100 | > 100 |
